Source: PubChem BioAssay AID248 (DTP/NCI, 2004)
“And” between values parts separate entries of the source, which are not always exact repeats. Equal values may be shown once. Inconclusive results and toxic doses are left out. Cut-off read from the data, not from the text of the source: active = T/C of 150% or more; inactive = T/C below 125%.

System: L1210 leukemia ip in BDF1 mice, survival T/C
Assay: NCI In Vivo Anticancer Drug Screen. Data for tumor model L1210 Leukemia (intraperitoneal) in B6D2F1 (BDF1) mice
Details: endpoint: mean survival time, higher = longer survival
In short: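 Tumor cells were implanted, animals were treated, and survival was followed. The result divides the treated measurement by the vehicle-control measurement.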

[1] = dose: 100.0 mg/kg/injection, schedule: Q01DX001 (ip), vehicle: saline with Tween-80
[2] = dose: 100.0 mg/kg/injection, schedule: Q01DX009 (ip), vehicle: saline with Tween-80
[3] = dose: 100.0 mg/kg/injection, schedule: Q04DX002 (ip), vehicle: saline with Tween-80
[4] = dose: 100.0 mg/kg/injection, schedule: Q04DX003 (ip), vehicle: saline with Tween-80
[5] = dose: 200.0 mg/kg/injection, schedule: Q01DX001 (ip), vehicle: saline with Tween-80
[6] = dose: 200.0 mg/kg/injection, schedule: Q01DX009 (ip), vehicle: saline with Tween-80
[7] = dose: 200.0 mg/kg/injection, schedule: Q04DX002 (ip), vehicle: saline with Tween-80
[8] = dose: 400.0 mg/kg/injection, schedule: Q01DX001 (ip), vehicle: saline with Tween-80
[9] = dose: 400.0 mg/kg/injection, schedule: Q01DX009 (ip), vehicle: saline with Tween-80
[10] = dose: 400.0 mg/kg/injection, schedule: Q04DX002 (ip), vehicle: saline with Tween-80
[11] = dose: 50.0 mg/kg/injection, schedule: Q01DX001 (ip), vehicle: saline
[12] = dose: 100.0 mg/kg/injection, schedule: Q01DX001 (ip), vehicle: saline
[13] = dose: 200.0 mg/kg/injection, schedule: Q01DX001 (ip), vehicle: saline
[14] = dose: 100.0 mg/kg/injection, schedule: Q01DX009 (ip), vehicle: Klucel (hydroxypropylcellulose) (HPC)
[15] = dose: 200.0 mg/kg/injection, schedule: Q01DX009 (ip), vehicle: Klucel (hydroxypropylcellulose) (HPC)
[16] = dose: 400.0 mg/kg/injection, schedule: Q01DX009 (ip), vehicle: Klucel (hydroxypropylcellulose) (HPC)

Measured: T/C

Cc1ccc(Cl)cc1NC(=O)Nc1ccccc1F
inactive: dose: 25.0 mg/kg/injection, schedule: Q04DX003 (ip), vehicle: saline with Tween-80 94 % of control | dose: 50.0 mg/kg/injection, schedule: Q04DX003 (ip), vehicle: saline with Tween-80 86 % of control and 91 % of control | [1] 92 % of control | [2] 103 % of control and 105 % of control | [3] 98 % of control and 92 % of control | [4] 104 % of control and 90 % of control | [5] 92 % of control | [6] 98 % of control and 90 % of control | [7] 95 % of control and 92 % of control | [8] 89 % of control | [9] 94 % of control and 92 % of control | [10] 90 % of control and 92 % of control

CC(=O)c1cccnc1
inactive: [11] 104 % of control | [12] 91 % of control | [13] 93 % of control

Cc1cccc(C(=O)OCc2ccccc2CN2CCCCC2)c1
inactive: dose: 25.0 mg/kg/injection, schedule: Q04DX002 (ip), vehicle: Klucel (hydroxypropylcellulose) (HPC) 105 % of control | dose: 50.0 mg/kg/injection, schedule: Q04DX002 (ip), vehicle: Klucel (hydroxypropylcellulose) (HPC) 105 % of control | dose: 100.0 mg/kg/injection, schedule: Q04DX002 (ip), vehicle: Klucel (hydroxypropylcellulose) (HPC) 105 % of control

CCN(CC)c1ccc(/C=N/Nc2nnc(N/N=C/c3ccc(N(CC)CC)cc3)c3ccccc23)cc1
inactive: [11] 94 % of control | [12] 92 % of control | [13] 105 % of control

CC(=O)OC12CC3(C)CC(C)(C1)CC(OC(C)=O)(C3)C2
inactive: dose: 100.0 mg/kg/injection, schedule: Q04DX002 (ip), vehicle: saline 113 % of control | dose: 200.0 mg/kg/injection, schedule: Q04DX002 (ip), vehicle: saline 90 % of control | dose: 400.0 mg/kg/injection, schedule: Q04DX002 (ip), vehicle: saline 113 % of control

O=C(COc1ccc([N+](=O)[O-])cc1Cl)Nc1ccccc1
inactive: dose: 100.0 mg/kg/injection, schedule: Q01DX009 (ip), vehicle: acetone 90 % of control | dose: 100.0 mg/kg/injection, schedule: Q04DX003 (ip), vehicle: acetone 95 % of control | dose: 200.0 mg/kg/injection, schedule: Q04DX003 (ip), vehicle: acetone 95 % of control | dose: 400.0 mg/kg/injection, schedule: Q04DX003 (ip), vehicle: acetone 94 % of control

CCCCCCCCCCC1CC2CCCC3CCC4CCCC1C4C32 (configuration not stated)
inactive: [1] 95 % of control | [5] 108 % of control | [8] 100 % of control

COc1ccc([N+](=O)[O-])cc1NC(=O)Nc1ccc(I)cc1
inactive: [14] 103 % of control | [15] 95 % of control | [16] 103 % of control

CCCCC(CN)c1cccc2ccccc12 (configuration not stated)
inactive: dose: 25.0 mg/kg/injection, schedule: Q04DX002 (ip), vehicle: saline with Tween-80 95 % of control | dose: 50.0 mg/kg/injection, schedule: Q04DX002 (ip), vehicle: saline with Tween-80 92 % of control

O=c1[nH]c2ccc(F)cc2c(=O)o1
inactive: dose: 75.0 mg/kg/injection, schedule: Q01DX009 (ip), vehicle: saline 107 % of control | dose: 150.0 mg/kg/injection, schedule: Q01DX009 (ip), vehicle: saline 93 % of control | dose: 300.0 mg/kg/injection, schedule: Q01DX009 (ip), vehicle: saline 94 % of control

COC(=O)C1=NN(C(C)=O)C(c2ccc(C)cc2)(c2ccc(C)cc2)C1
inactive: dose: 100.0 mg/kg/injection, schedule: Q01DX001 (ip), vehicle: steriod suspending solution 105 % of control | dose: 200.0 mg/kg/injection, schedule: Q01DX001 (ip), vehicle: steriod suspending solution 87 % of control | dose: 400.0 mg/kg/injection, schedule: Q01DX001 (ip), vehicle: steriod suspending solution 92 % of control

CC1C(=O)C2CCCCC2C1=O (configuration not stated)
inactive: [12] 96 % of control | [13] 96 % of control | dose: 400.0 mg/kg/injection, schedule: Q01DX001 (ip), vehicle: saline 100 % of control

CC(=O)Nc1nnc(Sc2ccc([N+](=O)[O-])cc2[N+](=O)[O-])s1
inactive: [14] 95 % of control | [15] 95 % of control | [16] 100 % of control

CC(=O)NCC(S)c1ccc(Cl)cc1 (configuration not stated)
inactive: [2] 103 % of control | [4] 112 % of control | [6] 103 % of control | dose: 200.0 mg/kg/injection, schedule: Q04DX003 (ip), vehicle: saline with Tween-80 93 % of control | [9] 103 % of control | dose: 400.0 mg/kg/injection, schedule: Q04DX003 (ip), vehicle: saline with Tween-80 88 % of control

CCCNC(=O)c1cc(NC(=O)Nc2ccc(C3=NCCCN3)cc2)cc(NC(=O)Nc2ccc(C3=NCCCN3)cc2)c1
inactive: dose: 21.0 mg/kg/injection, schedule: Q01DX Z (ip), vehicle: carboxymethylcellulose (CMC) 115 % of control | dose: 42.0 mg/kg/injection, schedule: Q01DX Z (ip), vehicle: carboxymethylcellulose (CMC) 113 % of control | dose: 84.0 mg/kg/injection, schedule: Q01DX Z (ip), vehicle: carboxymethylcellulose (CMC) 117 % of control

CC(=O)OC(C)c1ccc(Cl)cc1 (configuration not stated)
inactive: [3] 101 % of control | [7] 97 % of control | [10] 93 % of control

CC(=O)Nc1ccc(Cc2ccc(Br)cc2)cc1
inactive: [12] 96 % of control | [13] 106 % of control

C[n+]1cccc2c(C(=O)O)cccc21
inactive: [12] 97 % of control | [13] 96 % of control

COC(=O)C(O)(C#CC(C)C)c1ccccc1 (configuration not stated)
inactive: dose: 100.0 mg/kg/injection, schedule: Q01DX001 (ip), vehicle: other 107 % of control | dose: 200.0 mg/kg/injection, schedule: Q01DX001 (ip), vehicle: other 100 % of control | dose: 400.0 mg/kg/injection, schedule: Q01DX001 (ip), vehicle: other 94 % of control

OC[P+](c1ccccc1)(c1ccccc1)c1ccccc1
inactive: dose: 100.0 mg/kg/injection, schedule: Q04DX003 (ip), vehicle: saline 98 % of control | dose: 200.0 mg/kg/injection, schedule: Q04DX003 (ip), vehicle: saline 98 % of control

O=C(Nc1ccc(C(=O)O)cc1)Nc1ccccc1F
inactive: dose: 50.0 mg/kg/injection, schedule: Q01DX009 (ip), vehicle: Klucel (hydroxypropylcellulose) (HPC) 93 % of control | [14] 104 % of control

Cc1ccc(C(=O)/C(=C/c2ccccc2)c2ccccc2)cc1
inactive: [14] 101 % of control | dose: 100.0 mg/kg/injection, schedule: Q04DX003 (ip), vehicle: Klucel (hydroxypropylcellulose) (HPC) 96 % of control | [15] 97 % of control | dose: 200.0 mg/kg/injection, schedule: Q04DX003 (ip), vehicle: Klucel (hydroxypropylcellulose) (HPC) 93 % of control | [16] 88 % of control | dose: 400.0 mg/kg/injection, schedule: Q04DX003 (ip), vehicle: Klucel (hydroxypropylcellulose) (HPC) 96 % of control
